{
  "source": "patent US20250295657A1",
  "about": "“Methods and Compositions for Treatment of Inflammation and Inflammatory Conditions” (University of Pittsburgh - Of the Commonwealth System of …, priority 2022, published 2025)",
  "key": {"coronavirus": {"system": "coronavirus", "conditions": "mouse, in vivo"}, "NCOA7 [1]": {"target": "T1, NCOA7 (Homo sapiens, UniProt Q8NI08)", "T1 sequence (Q8NI08 1-942)": "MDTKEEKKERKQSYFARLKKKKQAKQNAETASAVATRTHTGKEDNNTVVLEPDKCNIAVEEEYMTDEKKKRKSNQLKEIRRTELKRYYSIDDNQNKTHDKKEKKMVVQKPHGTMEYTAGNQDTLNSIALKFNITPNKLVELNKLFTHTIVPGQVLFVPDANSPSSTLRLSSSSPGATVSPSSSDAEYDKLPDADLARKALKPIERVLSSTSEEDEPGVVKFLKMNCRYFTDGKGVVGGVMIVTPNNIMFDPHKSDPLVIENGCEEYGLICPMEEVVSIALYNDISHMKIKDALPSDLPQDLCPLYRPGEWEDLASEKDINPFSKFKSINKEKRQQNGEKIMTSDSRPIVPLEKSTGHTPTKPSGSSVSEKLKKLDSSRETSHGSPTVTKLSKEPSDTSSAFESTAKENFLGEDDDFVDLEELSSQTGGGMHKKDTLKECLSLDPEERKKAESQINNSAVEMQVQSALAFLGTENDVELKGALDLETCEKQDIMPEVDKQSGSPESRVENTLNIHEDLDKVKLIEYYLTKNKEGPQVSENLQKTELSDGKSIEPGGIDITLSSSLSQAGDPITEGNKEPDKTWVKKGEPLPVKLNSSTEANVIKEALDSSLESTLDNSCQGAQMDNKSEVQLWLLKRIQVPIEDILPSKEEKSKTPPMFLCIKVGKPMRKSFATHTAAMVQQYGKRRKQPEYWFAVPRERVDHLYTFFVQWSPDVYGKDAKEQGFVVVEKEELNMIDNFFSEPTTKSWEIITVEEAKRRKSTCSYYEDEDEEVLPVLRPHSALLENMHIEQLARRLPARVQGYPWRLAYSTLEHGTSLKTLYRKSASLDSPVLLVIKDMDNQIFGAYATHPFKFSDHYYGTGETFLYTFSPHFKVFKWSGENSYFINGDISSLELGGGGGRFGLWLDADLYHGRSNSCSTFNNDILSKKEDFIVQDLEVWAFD", "test": "Initial experimental validation of top scoring virtual screening compounds", "conditions": "preliminary data", "description": "Pharmacophore modeling: Using Pharmmaker, we identified the residues involved in high affinity interactions with each molecular probe type. The residue-probe interactions were subsequently rank-ordered based on their frequency of occurrence at the druggable hot spots in multiple runs. […] The pharmacophore model contained a hydrogen bond donor and a hydrophobic feature at the isopropylamine site and hydrophobic and aromatic rings at the two benzene sites. The pharmacophore model was then screened against the ZINC and MolPort libraries using Pharmit. The MolPort library contains 67,033,884 conformers corresponding to 4,848,718 compounds, and the ZINC library contains 122,276,899 conformers of 13,127,550 compounds. Among top-scoring compounds, MolPort-004-267-958 was selected for further refinement after initial experimental validation."}, "[2]": {"system": "BA.2 spike pseudotyped virus", "assay_type": "cell-based"}, "Klebsiella pneumoniae": {"system": "Klebsiella pneumoniae", "test": "Mice infected with Klebsiella pneumoniae, acute lung injury", "assay_type": "in vivo, mouse", "conditions": "5 mg/kg IP daily for 3 days", "method": "Mice were infected with Klebsiella pneumoniae. […] (FIG. 23 (A, B)) Representative images were prepared of lung tissue sections stained with H&E after 48 hours of intratracheal infection with K. pneumoniae in mice treated with DMSO compared to 958 (5 mg/kg IP dosing daily for 3 days)."}, "VCAM1": {"system": "VCAM1", "test": "VCAM1 expression by RT-qPCR and immunoblot in PAECs", "assay_type": "cell-based, human", "method": "(§1) RNA extraction and quantitative polymerase chain reaction: Cells were lysed in QIAzol Lysis Reagent (Qiagen; 79306), and RNA was extracted using the Rnaeasy Kit (Qiagen; 74004). Complementary DNA was synthesized using the High-Capacity cDNA Reverse Transcription Kit (ThermoFisher; 4368813). Quantitative real-time PCR (RT-qPCR) was performed on an Applied Biosystems QuantStudio 6 Flex Real-Time PCR instrument.\n(§2) Target gene expression was normalized to a housekeeping gene (i.e., ACTB) and fold change was calculated using the […] method. TaqMan™ Universal PCR Master Mix (ThermoFisher; 4305719) was used with TaqMan primers (Table 1). PowerUp™ SYBR^TM Green Master Mix (ThermoFisher; A25742) was used with custom designed primers (Table 2).\nProtein extraction and immunoblotting: Cells were rinsed two times with PBS before collection in RIPA buffer containing protease and phosphatase inhibitors. Protein concentration was determined using the Pierce™ BCA Protein Assay Kit (ThermoFisher; 23225). Protein lysates were separated using 4-15% Mini-PROTEAN® TGX™ Precast Protein Gels (Bio-Rad Laboratories; 4561086) and subsequently transferred onto a PVDF membrane. Membranes were blocked with 5% BSA in Tris-buffered saline with 0.1% Tween 20 (TBST) for one hour at room temperature. Primary antibodies were subsequently added and incubated at 4° C. overnight (Table 3). The next day blots were washed three times for 10 minutes each with TBST. Blots were then incubated with the appropriate secondary antibody coupled to HRP for one hour at room temperature. After another round of TBST washing, blots were visualized using Pierce ECL reagents and images were captured using the BioRad ChemiDoc XRS+.\nApplication of oxysterols and bile acids: Oxysterols and bile acids were applied to human PAECs in 0.1% FBS, cell-specific media. 25-hydroxycholesterol and 7HOCA were dissolved in 100% ethanol and applied to cells at a concentration of 25 μM or 50 μM for 24 hours, respectively."}, "human PAECs": {"system": "human PAECs", "test": "Leukocyte and monocyte adhesion to an endothelial monolayer", "assay_type": "cell-based", "method": "Leukocyte and monocyte adhesion assays: Immune activation of the endothelium was assessed by measuring the adhesion of immune cells to an endothelial monolayer. Human PAECs were cultured until a complete monolayer was formed. Immune cells were stained with either CellTrace™ Blue or CFSE (ThermoFisher; Blue, C34568; CFSE, C34554) per the manufacturer's protocol. Between […] stained immune cells were added to each well of a six-well plate and allowed to incubate for 24 hours. Wells were then rinsed two times with PBS and subsequently fixed with 4% PFA for 15 minutes at room temperature. After fixation, the cells were rinsed once more with PBS. Fluorescent images were acquired at 4× magnification for each well. Immune cell number per image was quantified using Fiji. For the leukocyte adhesion assay, HuT 78 cutaneous T lymphocytes were used (ATCC). For the monocyte adhesion assay, THP-1 peripheral blood monocytes were used (ATCC)."}, "[3]": {"system": "chronically hypoxic mouse model", "conditions": "10 mg/kg orotracheal, four weeks hypoxia"}, "NCOA7 [4]": {"system": "NCOA7", "test": "IL-1β-mediated upregulation of NCOA7 in ECs", "assay_type": "cell-based", "conditions": "inhibition of STAT1/2 signaling"}, "[5]": {"system": "monocrotaline PAH rat model", "conditions": "7.5 mg/kg i.p. for 10 days"}, "[6]": {"target": "ATP6V1B2-NCOA7 interactions (Homo sapiens, UniProt Q8NI08)", "sequence (P21281 whole entry partner, one chain of several)": "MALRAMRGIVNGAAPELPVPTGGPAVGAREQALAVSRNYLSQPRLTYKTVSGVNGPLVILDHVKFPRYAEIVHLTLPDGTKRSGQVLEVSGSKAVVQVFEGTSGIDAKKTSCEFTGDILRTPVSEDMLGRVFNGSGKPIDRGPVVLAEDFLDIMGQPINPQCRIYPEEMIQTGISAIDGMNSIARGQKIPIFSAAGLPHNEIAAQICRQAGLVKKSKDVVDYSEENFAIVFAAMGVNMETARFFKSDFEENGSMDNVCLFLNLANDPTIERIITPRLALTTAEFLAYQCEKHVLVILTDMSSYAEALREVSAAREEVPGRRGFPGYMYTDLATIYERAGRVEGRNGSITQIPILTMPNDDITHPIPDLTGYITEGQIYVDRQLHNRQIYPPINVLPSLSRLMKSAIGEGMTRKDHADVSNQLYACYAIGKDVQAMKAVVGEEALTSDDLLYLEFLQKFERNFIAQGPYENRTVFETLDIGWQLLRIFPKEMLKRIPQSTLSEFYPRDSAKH", "test": "Proximity ligation assay of ATP6V1B2-NCOA7 interactions in human PAECs", "assay_type": "cell-based", "conditions": "958ami versus DMSO", "method": "Proximity ligation assay: Direct interaction of NCOA7 with the V-ATPase subunit ATP6V1B2 was assessed using the Duolink® Proximity Ligation Assay (Millipore Sigma; DU092102). Human PAECs were plated in a Nunc™ Lab-Tek™ II Chamber Slide™ System (20,000 per well; ThermoFisher; 154453) and then fixed with 4% paraformaldehyde for 15 minutes. After permeabilization and blocking per the manufacturer's protocol, wells were incubated with either mouse anti-NCOA7 antibody (Santa Cruz Biotechnology; sc-393427), rabbit anti-ATP6V1B2 antibody (abcam; ab73404), both antibodies, or neither antibodies overnight at 4° C. (Table 3). Cells were then incubated with the PLUS and MINUS probes for one hour, ligated for 30 minutes, and amplified for 100 minutes at 37° C. Slides were then mounted with ProLong™ Gold Antifade Mountant with DAPI (ThermoFisher; P36935). Images were acquired on a Nikon A1 Confocal Microscope at the Center for Biologic Imaging at the University of Pittsburgh."}, "CH25H": {"system": "CH25H", "test": "CH25H expression via RT-qPCR in PAECs under IL-1β", "assay_type": "cell-based, human", "method": "as §1, §2"}, "[7]": {"conditions": "25 μM for 24 hours versus ethanol"}},
  "data": [
    {"compound": "O=C(OCc1cc(=O)oc2cc(O)c(O)cc12)c1nn(-c2ccccc2)c(=O)c2ccccc12", "note": "[compound 958]", "values": [
      {"measurement": "mortality", "setting": "coronavirus", "result": "significantly improved mortality"},
      {"measurement": "proinflammatory markers (IL-1α, IL-1β, IFN-γ, VCAM1, and ICAM1) in lung tissue", "setting": "coronavirus", "result": "attenuation"},
      {"measurement": "viral load in lung tissue", "setting": "coronavirus", "result": "decreased viral load"},
      {"measurement": "effect on NCOA7 relative to the other predicted compounds", "setting": "NCOA7 [1]", "result": "activator of NCOA7"},
      {"measurement": "BA.2 spike pseudotyped virus infection", "setting": "[2]", "result": "decrease"},
      {"measurement": "inflammation by ELISA on lung homogenate of IL-1β, TNF-α, and IL-6", "setting": "Klebsiella pneumoniae", "result": "decreased inflammation"},
      {"measurement": "acute lung injury", "setting": "Klebsiella pneumoniae; H&E after 48 hours of intratracheal infection", "result": "improvement of acute lung injury"}
    ]},
    {"compound": "C[C@H](CCCC(C)(C)O)[C@H]1CC[C@H]2[C@@H]3CC=C4C[C@@H](O)CC[C@]4(C)[C@H]3CC[C@]12C", "note": "[25HC, 25-hydroxycholesterol]", "values": [
      {"measurement": "VCAM1 expression", "setting": "VCAM1; [7]", "result": "similarly upregulated VCAM1"},
      {"measurement": "immune cell adhesion to a PAEC monolayer", "setting": "human PAECs; [7]", "result": "enhanced immune cell adhesion"}
    ]},
    {"compound": "CC(CCC[C@@H](C)[C@H]1CC[C@H]2[C@@H]3[C@H](O)CC4=CC(=O)CC[C@]4(C)[C@H]3CC[C@]12C)C(=O)O", "note": "(stereo partly drawn) [7HOCA, 7α-hydroxy-3-oxo-4-cholestenoic acid]", "values": [
      {"measurement": "VCAM1 expression", "setting": "VCAM1; 7HOCA 50 μM for 24 hours versus ethanol control", "result": "significantly upregulated"},
      {"measurement": "CD11b+ monocyte infiltration into the vascular bed", "setting": "[3]", "result": "enhanced"},
      {"measurement": "RVSP", "setting": "[3]", "result": "increased"},
      {"measurement": "VCAM1 expression in pulmonary vessels", "setting": "[3]", "result": "enhanced"},
      {"measurement": "pulmonary arteriolar remodeling", "setting": "[3]", "result": "increased"},
      {"measurement": "adhesion of leukocytes and monocytes to a PAEC monolayer", "setting": "human PAECs; 7HOCA-treated PAECs versus ethanol control", "result": "promoting adhesion"}
    ]},
    {"compound": "N#CCNC(=O)c1ccc(-c2ccnc(Nc3ccc(N4CCOCC4)cc3)n2)cc1", "note": "[momelotinib]", "values": [
      {"measurement": "IL-1β-mediated upregulation of NCOA7", "setting": "NCOA7 [4]", "result": "abrogated"}
    ]},
    {"compound": "O=C(NCc1cc(=O)oc2cc(O)c(O)cc12)c1nn(-c2ccccc2)c(=O)c2ccccc12", "note": "[958ami]", "values": [
      {"measurement": "EC immunoactivation as noted by VCAM1 expression", "setting": "VCAM1; 958ami 20 μM for 24 hours versus DMSO", "result": "decreased EC immunoactivation"},
      {"measurement": "CD11b+ monocyte infiltration at the pulmonary vessel", "setting": "[5]", "result": "attenuation"},
      {"measurement": "CH25H expression in pulmonary vessels", "setting": "[5]", "result": "decreased CH25H expression"},
      {"measurement": "RVSP", "setting": "[5]", "result": "significant reduction"},
      {"measurement": "VCAM1 expression at the endothelium", "setting": "[5]", "result": "attenuation"},
      {"measurement": "pulmonary vessel muscularization", "setting": "[5]", "result": "decreased muscularization"},
      {"measurement": "right ventricular hypertrophy (Fulton's Index)", "setting": "[5]", "result": "significant reduction"},
      {"measurement": "hepatic or renal toxicity", "setting": "[5]; versus vehicle", "result": "neither had appreciable hepatic or renal toxicity"},
      {"measurement": "number of amplifications per cell (ATP6V1B2-NCOA7 interactions)", "setting": "[6]", "result": "significantly induced"},
      {"measurement": "BA.2 spike pseudotyped virus infection", "setting": "[2]", "result": "decrease"},
      {"measurement": "CH25H induction", "setting": "CH25H", "result": "prevented induction of CH25H"},
      {"measurement": "EC immunoactivation as noted by immune cell adhesion to a monolayer", "setting": "human PAECs; 958ami-treated PAECs versus DMSO", "result": "decreased EC immunoactivation"}
    ]}
  ]
}
